These results are taken from paper PMC6149822, “A New Series of Pyrrole-Based Chalcones: Synthesis and Evaluation of Antimicrobial Activity, Cytotoxicity, and Genotoxicity” (Molecules : A Journal of Synthetic Chemistry and Natural …, 2017).

Data set [1] concerns S. aureus (ATCC 25923). Kind of data set: Microdilution susceptibility assay (MIC). To be noted: Staphylococcus aureus, ATCC25923. Format: cell-based. As for the experimental part: (§1) Compounds 1–10 were screened for their antimicrobial activity against gram-negative bacteria, gram-positive bacteria, and yeasts, listed in Table 1. Bacteria were grown in Mueller-Hinton Broth and yeasts were grown in Sabouraud Dextrose Broth (SDB) during experiments. Overnight cultures were prepared routinely by subculturing of stock culture onto Mueller-Hinton Agar for bacteria and Sabouraud Dextrose Agar for yeasts.
(§2) Microdilution susceptibility assay was used for the determination of antibacterial and anticandidal efficacy of compounds 1–10. Chloramphenicol and ketoconazole were used as positive controls for bacteria and yeasts, respectively. All experiments were designed according to the Clinical Laboratory Standards Institute (CLSI). All chemicals were dissolved in dimethyl sulfoxide (DMSO) to obtain stock solution (10 mg/mL). Two-fold serial dilutions (800, 400, 200...0.78 µg/mL) of the compounds were prepared from stock solutions with dH2O. 100 µL of each solution was transferred to 96-well microtiter plates and 100 µL of 10^6 CFU/mL of bacteria and 2 × 10^3 of CFU/mL yeast were added to related wells. As negative controls, wells including microorganisms without agents and wells including agents without microorganisms were used. The plates were kept at 35 °C for 18–20 h and the growth was determined with resazurin (20 mg/mL). Assays were carried out in triplicate.

Data set [2] concerns E. faecalis (ATCC 29212). Kind of data set: Microdilution susceptibility assay (MIC). Format: cell-based. Particulars: Enterococcus faecalis, ATCC29212. As for the experimental part: as §1, §2
In general terms: In broth dilution the organism is exposed to a series of concentrations in liquid medium.

Data set [3] relates to E. coli (ATCC 25922). Kind of data set: Microdilution susceptibility assay (MIC). To be noted: Escherichia coli, ATCC25922. Type of data set: cell-based. As for the experimental part:
as §1, §2

Data set [4] concerns K. pneumoniae (ATCC 700603). Kind of data set: Microdilution susceptibility assay (MIC). Format: cell-based. To be noted: Klebsiella pneumoniae, ATCC700603. Here is the method: as §1, §2
For data set [5], the system named is E. faecalis (ATCC 51299). Nature of the data set: Microdilution susceptibility assay (MIC). Type of data set: cell-based. Particulars: Enterococcus faecalis, ATCC51299. Here is the method:
as §1, §2

The subject of data set [6] is C. albicans (ATCC 90028). Nature of the data set: Microdilution susceptibility assay (MIC). Format: cell-based. Particulars: Candida albicans, ATCC90028. Here is the method:
as §1, §2

The subject of data set [7] is HepG2 human hepatocellular carcinoma cell line. Nature of the data set: MTT assay. To be noted: Homo sapiens, HepG2. Type of data set: cell-based. Here is the method: (§3) The anticancer effects of compounds 1–10 on A549 human lung adenocarcinoma (ATCC® CCL-185™), HepG2 human hepatocellular carcinoma (ATCC® HB-8065™), and C6 rat glioma (ATCC® CCL107™) cell lines were assessed using 3-(4,5-Dimethylthiazol-2-yl)-2,5-diphenyltetrazolium bromide (MTT) assay, whereas the selectivity of compounds 1–10 was tested using NIH/3T3 mouse embryonic fibroblast cell line (ATCC® CRL-1658™, London, UK). All cell lines were incubated according to the supplier’s recommendations. The cells were seeded as 1 × 10^4 cells into each well of the 96-well plates. MTT assay was performed as previously described. The compounds were tested between the concentrations equal to 1 mM and 0.000316 mM (1.0, 0.316, 0.10, 0.0316, 0.01, 0.00316, 0.001, 0.000316 mM). Stock solutions of compounds were prepared in dimethyl sulfoxide (DMSO) and further dilutions were made with fresh culture medium. The final DMSO concentration was under 1% [34] and cisplatin was used as a positive control. Inhibition % was calculated for each concentration according to the formula below, and IC50 values were determined by plotting a dose–response curve of inhibition % versus compound concentrations tested. All experiments were performed in quadruplicate.Inhibition % = 100 − [(ODtest compound − ODblank/ODsolvent control − ODblank)] × 100(1)
(Formazan colour is commonly taken as a measure of viable cells.)

Data set [8] deals with NIH/3T3 mouse embryonic fibroblast cell line. Nature of the data set: MTT assay. Format: cell-based. Particulars: Mus musculus, NIH3T3, healthy cells for selectivity. As for the experimental part:
as §3

Data set [9] relates to A549 human lung adenocarcinoma cell line. Kind of data set: MTT assay. Format: cell-based. To be noted: Homo sapiens, A549. As for the experimental part: as §3
Data set [10] has as its system C6 rat glioma cell line. Nature of the data set: MTT assay. Type of data set: cell-based. To be noted: Rattus norvegicus, C6. Here is the method:
as §3

In data set [11] the test system is C. glabrata (ATCC 90030). Kind of data set: Microdilution susceptibility assay (MIC). Type of data set: cell-based, Candida glabrata. To be noted: Nakaseomyces glabratus, ATCC90030. Here is the method:
as §1, §2

Data set [12] deals with C. krusei (ATCC 6258). Nature of the data set: Microdilution susceptibility assay (MIC). Format: cell-based, Candida krusei. To be noted: Pichia kudriavzevii, ATCC6258. Here is the method:
as §1, §2

Data set [13] relates to C. parapsilosis (ATCC 22019). Kind of data set: Microdilution susceptibility assay (MIC). Type of data set: cell-based, Candida parapsilosis. To be noted: Lodderomyces parapsilosis, ATCC22019. As for the experimental part: as §1, §2
For data set [14], the system named is E. faecalis (ATCC 29212). Kind of data set: ATP luminescence microbial cell viability assay. Format: cell-based, Enterococcus faecalis. Particulars: 24 h treatment, result in words. Here is the method:
(§4) A model from BioTek Instruments Inc. combined with a BacTiter-Glo^TM Microbial Cell Viability assay (Promega Corp., Madison, WI, USA) was used to provide a sensitive and rapid method for determining the number of viable microbial cells in culture based on quantitation of the ATP present. […] After incubation, cultures were added into the wells (final concentration of bacteria was 5 × 10^5 CFU/mL and 2.5 × 10^6 CFU/mL for yeasts). After adding the BacTiter reagent, incubation time for bacteria and yeasts was 5 min and 15 min, respectively.
(§5) The assay generates a “glow-type” luminescent signal, produced by the luciferase reaction. Briefly, after chemicals and strains were incubated for 24 h, 100 µL of the culture was taken from each well and mixed with the same volume of the BacTiter-Glo™ reagent in a white, opaque-walled microtiter plate. Control wells containing medium without cells were prepared to obtain a value for background luminescence. Cells without compound were used as an ATP-positive control. The microplates were further incubated under agitation for 7 min. Bioluminescence was recorded in a multi-detection microplate reader (BioTek Synergy 2 Multi-Mode Microplate Reader, BioTek Instruments, Winooski, VT, USA). In Figure 3, results were given as percentage of untreated control, which is set at 100%. Experiments were performed in triplicate and each sample was measured in four replicates.

Data set [15] concerns C. glabrata. Nature of the data set: ATP luminescence microbial cell viability assay. Format: cell-based, Candida glabrata. Particulars: 24 h treatment, result in words. Here is the method:
as §4, §5

The test system of data set [16] is C. krusei cells. Kind of data set: Flow cytometry live/dead analysis (TO/PI). Format: cell-based, Candida krusei. To be noted: 25 µg/mL, 4 h. The source says: In order to investigate the effects of compounds 7 and 9 on the integrity of C. krusei cells, flow cytometry was used with BD cell viability kits. Live cells are impermeable to dyes such as PI since they have intact membranes. TO is a permeant dye and enters live and dead cells to varying degrees. The fluorescent signal from TO in viable cells allows their enumeration, even when debris in the cell preparation contaminates a scatter gate around the cells. Thus, the combination of these two dyes provides a rapid and reliable method for discriminating live and dead eukaryotic cells, including yeasts. All steps were performed according to manufacturers’ recommendations. Briefly, Candida cells were cultured at 35 °C in SDB until late log phase. The cells were centrifuged and washed with phosphate-buffered saline (PBS) at pH = 7.0. Suspensions containing 2 × 10^3 cells/mL were incubated with compounds 7 and 9, and ketoconazole as a reference drug, for 4 h at 35 °C, with shaking (200 r.p.m.). […] Suspensions of treated and untreated cells were incubated for 30 min in the presence of 2 µL of PI and 2 µL of TO, in the dark, at room temperature. The cell suspensions were analysed in a BD Accuri C6 flow cytometer (Becton-Dickinson, Mansfield, MA, USA). The cell scattergram (forward scatter: FS, side scatter: SS), the autofluorescence (without fluorocrome), and the intensity of fluorescence at FL1 (green fluorescence, 525 nm) and FL2 (red fluorescence, 620 nm) were recorded using a logarithmic scale.
On the technique in general: A flow cytometer gives signals particle by particle.

By MIC is commonly meant the least concentration at which growth counts as inhibited. One may read the melting point as the temperature, or range, at which the solid turns liquid. Broadly, the IC50 is the concentration that inhibits the measured activity by half. A higher IC50 goes with weaker potency.

Values after ≈ are worked out from the molar mass of the structure shown.

For the compound `O=C(N[C@H](CO)[C@H](O)c1ccc([N+](=O)[O-])cc1)C(Cl)Cl` [Chloramphenicol, reference compound], the MIC in [1] was found to be 25 µg/mL (≈ 77.4 µM); in [2], 50 µg/mL (≈ 155 µM); in data set [3], 25 µg/mL (≈ 77.4 µM); in [4], 50 µg/mL (≈ 155 µM); in data set [5], 100 µg/mL (≈ 309 µM).

In turn, `Cn1cccc1C(=O)C=Cc1ccc(-c2ccc([N+](=O)[O-])cc2)o1` [Compound 1, 1-(1-Methyl-1H-pyrrol-2-yl)-3-(5-(4-nitrophenyl)furan-2-yl)prop-2-en-1-one] showed a melting point of 179 to 181 °C. Moreover, in [1], the MIC was found to be 200 µg/mL (≈ 621 µM). This compound also registered an MIC in data set [2] of 100 µg/mL (≈ 310 µM). Besides, the minimum inhibitory concentration (MIC) in [3] was found to be 100 µg/mL (≈ 310 µM). The compound further showed a minimum inhibitory concentration (MIC) in [4] of 200 µg/mL (≈ 621 µM). Also, the minimum inhibitory concentration (MIC) in [5] worked out at 200 µg/mL (≈ 621 µM). This compound returned a minimum inhibitory concentration (MIC) in data set [6] of 100 µg/mL (≈ 310 µM). Moreover, the half-maximal inhibitory concentration (IC50) in data set [7] worked out at 322 µg/mL (≈ 999 µM). The compound also registered an IC50 in data set [8] of 109 µg/mL (≈ 338 µM). This compound also displayed a half-inhibitory concentration (IC50) in data set [9] of 0.3 µg/mL (≈ 0.931 µM). Besides, it took 84 µg/mL (≈ 261 µM) to reach half-maximal inhibition in data set [10] (IC50). This compound came in with an MIC in data set [11] of 200 µg/mL (≈ 621 µM). This compound also showed an MIC in data set [12] of 200 µg/mL (≈ 621 µM). In [13], this compound yielded an MIC of 100 µg/mL (≈ 310 µM). Also, the “antimicrobial activity in ATP bioluminescence assay” value in data set [14] was “sensitive”.

`Cn1cccc1C(=O)C=Cc1ccc(-c2ccc(Cl)cc2Cl)o1` [Compound 8, 1-(1-Methyl-1H-pyrrol-2-yl)-3-(5-(2,4-dichlorophenyl)furan-2-yl)prop-2-en-1-one]: the melting point was 98 to 99 °C. The MIC in data set [1] was found to be 400 µg/mL (≈ 1160 µM). The same compound showed an MIC in data set [2] of 200 µg/mL (≈ 578 µM). In data set [3], the minimum inhibitory concentration (MIC) worked out at 100 µg/mL (≈ 289 µM). Besides, the minimal inhibitory concentration (MIC) in data set [4] came out at 200 µg/mL (≈ 578 µM). For the same compound, the MIC in data set [5] stood at 400 µg/mL (≈ 1160 µM). In [6], it took 200 µg/mL (≈ 578 µM) to inhibit growth (MIC). In data set [7], this compound gave a 50% inhibitory concentration (IC50) of 106 µg/mL (≈ 306 µM). In data set [8], this compound displayed a 50% inhibitory concentration (IC50) of 277 µg/mL (≈ 800 µM). For the same compound, in data set [9], the IC50 was 225 µg/mL (≈ 650 µM). Moreover, in data set [10], the 50% inhibitory concentration (IC50) was found to be 90 µg/mL (≈ 260 µM). The compound further displayed a minimum inhibitory concentration (MIC) in [11] of 100 µg/mL (≈ 289 µM). The MIC in data set [12] is 50 µg/mL (≈ 144 µM). The “antifungal activity in ATP bioluminescence assay” value in data set [15] is given as “antifungal activity close to ketoconazole”. For the same compound, the minimum inhibitory concentration (MIC) in data set [13] worked out at 100 µg/mL (≈ 289 µM).

For the compound `CC(=O)N1CCN(c2ccc(OCC3COC(Cn4ccnc4)(c4ccc(Cl)cc4Cl)O3)cc2)CC1` (centres unmarked) [Ketoconazole, reference compound], the MIC in data set [6] was determined as 50 µg/mL (≈ 94.1 µM); in [11], 100 µg/mL (≈ 188 µM); in data set [12], 50 µg/mL (≈ 94.1 µM); in [13] it was 50 µg/mL (≈ 94.1 µM). Moreover, the “Dead Cell %” value in data set [16] came out at 18.4%. Moreover, in [16], the “Live Cell %” value was 81.2%.
